Measured values reported in ChEMBL document CHEMBL1130517 (Bioorg Med Chem Lett, 1997).

What was measured:
[1] = target: T1, Endothelin receptor type B (Homo sapiens, UniProt P24530); assay: Receptor binding affinity was determined against [125I]ET1 with membranes prepared from human placenta for ETB receptor
T1 sequence (P24530 whole entry): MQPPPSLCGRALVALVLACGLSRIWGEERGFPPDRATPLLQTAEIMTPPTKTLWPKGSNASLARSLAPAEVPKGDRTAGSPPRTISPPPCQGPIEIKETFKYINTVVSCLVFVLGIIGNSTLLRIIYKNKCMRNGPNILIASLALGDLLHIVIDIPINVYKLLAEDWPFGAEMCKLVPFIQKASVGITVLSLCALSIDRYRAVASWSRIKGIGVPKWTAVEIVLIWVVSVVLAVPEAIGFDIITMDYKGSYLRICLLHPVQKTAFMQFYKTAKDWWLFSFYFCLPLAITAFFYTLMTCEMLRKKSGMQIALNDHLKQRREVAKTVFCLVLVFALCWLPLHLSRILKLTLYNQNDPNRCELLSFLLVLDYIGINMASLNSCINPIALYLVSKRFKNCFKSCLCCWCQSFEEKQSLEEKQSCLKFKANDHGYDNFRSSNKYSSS

Endothelin-1 receptor [2] = target: T2, Endothelin-1 receptor (Rattus norvegicus, UniProt P26684); assay: Evaluation for functional inhibitory potency prevention of ET-1 induced constriction of rat aortic rings (ETA receptors); settings: read-out: pA2 (converted)
T2 sequence (P26684 whole entry): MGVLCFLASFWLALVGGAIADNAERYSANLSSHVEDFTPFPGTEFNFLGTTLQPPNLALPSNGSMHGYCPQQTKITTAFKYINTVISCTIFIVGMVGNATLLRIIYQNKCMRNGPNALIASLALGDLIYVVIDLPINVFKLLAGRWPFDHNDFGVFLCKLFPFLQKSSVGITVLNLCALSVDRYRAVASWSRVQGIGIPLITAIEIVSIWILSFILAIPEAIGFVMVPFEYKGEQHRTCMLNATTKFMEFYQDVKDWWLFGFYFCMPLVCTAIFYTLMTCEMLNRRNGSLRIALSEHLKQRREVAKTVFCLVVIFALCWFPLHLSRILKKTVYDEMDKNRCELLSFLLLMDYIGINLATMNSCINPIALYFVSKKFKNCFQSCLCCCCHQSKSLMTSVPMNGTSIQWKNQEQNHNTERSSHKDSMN

Endothelin-1 receptor [3] = target: T3, Endothelin-1 receptor (Homo sapiens, UniProt P25101); assay: Receptor binding affinity was determined against [125I]ET1 with recombinant human ETA receptor, expressed in baculovirus-infected Sf9 cells
T3 sequence (P25101 whole entry): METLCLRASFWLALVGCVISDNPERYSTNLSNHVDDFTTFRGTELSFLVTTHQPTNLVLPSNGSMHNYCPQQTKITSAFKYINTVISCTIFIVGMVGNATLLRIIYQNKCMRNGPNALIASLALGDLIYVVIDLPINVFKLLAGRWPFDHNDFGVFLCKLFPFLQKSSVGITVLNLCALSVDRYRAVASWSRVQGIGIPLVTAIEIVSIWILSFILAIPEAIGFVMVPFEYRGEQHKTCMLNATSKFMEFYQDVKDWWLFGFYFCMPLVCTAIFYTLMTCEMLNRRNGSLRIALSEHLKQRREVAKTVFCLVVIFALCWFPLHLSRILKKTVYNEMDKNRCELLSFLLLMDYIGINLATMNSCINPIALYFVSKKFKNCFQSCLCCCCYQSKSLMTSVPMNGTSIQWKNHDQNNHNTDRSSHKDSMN

[4] = target: T4, Endothelin receptor type B (Rattus norvegicus, UniProt P21451); assay: Compound was evaluated for in vitro functional inhibitory potency for prevention of sarafotoxin S6c induced constriction of rat tracheal rings (ETB receptors); settings: read-out: pA2 (converted)
T4 sequence (P21451 whole entry): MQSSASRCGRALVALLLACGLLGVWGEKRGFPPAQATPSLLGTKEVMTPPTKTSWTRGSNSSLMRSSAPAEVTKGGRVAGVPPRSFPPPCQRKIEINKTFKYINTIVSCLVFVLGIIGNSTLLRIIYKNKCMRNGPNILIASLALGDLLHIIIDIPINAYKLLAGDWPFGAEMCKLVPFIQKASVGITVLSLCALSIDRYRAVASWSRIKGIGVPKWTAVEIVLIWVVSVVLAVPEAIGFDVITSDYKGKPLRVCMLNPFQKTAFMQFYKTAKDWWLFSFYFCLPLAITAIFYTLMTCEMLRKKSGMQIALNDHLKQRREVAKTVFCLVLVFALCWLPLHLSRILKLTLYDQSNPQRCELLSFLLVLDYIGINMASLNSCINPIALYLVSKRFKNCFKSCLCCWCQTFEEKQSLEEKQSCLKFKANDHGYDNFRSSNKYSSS

Endothelin-1 receptor [5] = target: T2, Endothelin-1 receptor; assay: Compound was evaluated for in vitro functional inhibitory potency for prevention of ET-1 induced constriction of rat aortic rings (ETA receptors); settings: read-out: pA2 (converted)
Endothelin-1 receptor [6] = target: T3, Endothelin-1 receptor; assay: Receptor binding affinity was determined in a radioligand binding assay against [125I]ET1 with recombinant human ETA receptor, expressed in baculovirus-infected […] cells

Row | IC50 [1] [nM] | Kb (Endothelin-1 receptor [2]) [nM] | IC50 (Endothelin-1 receptor [3]) [nM] | SMILES | Kb [4] [nM] | Kb (Endothelin-1 receptor [5]) [nM] | IC50 (Endothelin-1 receptor [6]) [nM]
1 | 144 | 25.1 | 14 | COc1ccccc1Oc1c(NS(=O)(=O)c2ccc(C(C)(C)C)cc2)nc(C(C)(C)C)nc1OCCOC(=O)Nc1ccccn1 |  |  | 
2 | 14 | 1.58 | 1 | COc1ccccc1Oc1c(NS(=O)(=O)c2ccc(C(C)C)cn2)nc(N2CCSCC2)nc1OCCOC(=O)Nc1ccccn1 |  |  | 
3 | 43 | 1 |  | COc1ccccc1Oc1c(NS(=O)(=O)c2ccc(C(C)(C)C)cc2)nc(-c2ncccn2)nc1OCCOC(=O)Nc1ccccn1 |  |  | 
4 | 170 | 1 | 4 | COc1ccccc1Oc1c(NS(=O)(=O)c2ccc(C)cn2)nc(-c2ncccn2)nc1OCCOC(=O)Nc1ccccn1 |  |  | 
5 | 19 | 10 | 17 | COc1ccccc1Oc1c(NS(=O)(=O)c2ccc(C(C)(C)C)cc2)nc(N2CCOCC2)nc1OCCOC(=O)Nc1ccccn1 |  |  | 
6 | 25 | 0.2 | 0.2 | COc1ccccc1Oc1c(NS(=O)(=O)c2ccc(C)cn2)nc(N2CCOCC2)nc1OCCOC(=O)Nc1ccccn1 |  |  | 
7 | 60 | 20 | 7 | COc1ccccc1Oc1c(NS(=O)(=O)c2ccc(C(C)(C)C)cc2)nc(C2CC2)nc1OCCOC(=O)Nc1ccccn1 |  |  | 
8 | 770 |  | 880 | COc1ccccc1Oc1c(NS(=O)(=O)c2ccc(C(C)(C)C)cc2)nc(C)nc1OCCOC(=O)c1cccnc1 |  |  | 
9 | 700 |  | 900 | COc1ccccc1Oc1c(NS(=O)(=O)c2ccc(C(C)(C)C)cc2)nc(C)nc1OCCOC(=O)Nc1cccnc1 |  |  | 
10 | 120 |  | 8 | COc1ccccc1Oc1c(NS(=O)(=O)c2ccc(C(C)(C)C)cc2)nc(C)nc1OCCOC(=O)Nc1ccccn1 |  |  | 
11 | 1240 |  | 80 | COc1ccccc1Oc1c(NS(=O)(=O)c2ccc(C(C)(C)C)cc2)nc(C)nc1OCCNC(=O)Nc1ccccn1 |  |  | 
12 | 160 | 15.8 | 7 | COc1ccccc1Oc1c(NS(=O)(=O)c2ccc(C(C)(C)C)cc2)nc(C(C)C)nc1OCCOC(=O)Nc1ccccn1 |  |  | 
13 | 1000 |  | 1100 | COc1ccccc1Oc1c(NS(=O)(=O)c2ccc(C(C)(C)C)cc2)nc(C)nc1OCCOC(=O)c1ccoc1 |  |  | 

Further lines, the compound ahead of its results:

Row | SMILES | IC50 [1] [nM] | Kb (Endothelin-1 receptor [2]) [nM] | IC50 (Endothelin-1 receptor [3]) [nM] | Kb [4] [nM] | Kb (Endothelin-1 receptor [5]) [nM] | IC50 (Endothelin-1 receptor [6]) [nM]
14 | CCCc1nc(NS(=O)(=O)c2ccc(C(C)(C)C)cc2)c(Oc2ccccc2OC)c(OCCOC(=O)Nc2ccccn2)n1 | 63 | 12.6 | 9 |  |  | 
15 | COc1ccccc1Oc1c(NS(=O)(=O)c2ccc(C(C)(C)C)cc2)nc(C)nc1OCCOC(=O)Nc1ccncc1 | 2800 |  | 1900 |  |  | 
16 | CNCC(=O)OCCOc1nc(C)nc(NS(=O)(=O)c2ccc(C(C)(C)C)cc2)c1Oc1ccccc1OC | 300 |  | 1700 |  |  | 
17 | COc1ccccc1Oc1c(NS(=O)(=O)c2ccc(C(C)C)cn2)nc(-c2ncccn2)nc1OCCOC(=O)Nc1ccccn1 | 49 | 0.1 | 4 |  |  | 
18 | COc1ccccc1Oc1c(NS(=O)(=O)c2ccc(C(C)(C)C)cc2)nc(-c2cccs2)nc1OCCOC(=O)Nc1ccccn1 | 200 | 10 | 30 |  |  | 
19 | COc1ccccc1Oc1c(NS(=O)(=O)c2ccc(C(C)C)cn2)nc(N2CCCCC2)nc1OCCOC(=O)Nc1ccccn1 | 25 | 5.01 | 3 |  |  | 
20 | COc1ccccc1Oc1c(NS(=O)(=O)c2ccc(C(C)C)cn2)nc(N2CCOCC2)nc1OCCOC(=O)Nc1ccccn1 | 5 |  | 0.3 | 25.1 | 0.501 | 0.7
21 | COc1ccccc1Oc1c(NS(=O)(=O)c2ccc(C(C)(C)C)cc2)nc(C)nc1OCCO | 70 |  | 1500 |  |  | 
22 | COc1ccccc1Oc1c(NS(=O)(=O)c2ccc(C(C)(C)C)cc2)nc(-c2ncccn2)nc1OCCO [BOSENTAN] |  |  |  | 1580 | 50.1 | 
